Experimental data as given in US10221179B2, “Substituted pyrazoloquinazolinones and pyrroloquinazolinones as allosteric modulators of group II metabotropic glutamate receptors” (DOMAIN THERAPEUTICS, priority 2014, dated 2019).

Tests used:
human mGluR2 (hmGluR2) = biological target: T1, human mGluR2 (hmGluR2) (Homo sapiens, UniProt Q14416); assay: Ca++ functional assay, human mGluR2 transiently over-expressed in HEK-293 cells (agonist and negative allosteric modulator modes); type: cell-based; details: glutamate at EC80, intracellular calcium (Fluo4AM), read-out: hmGluR2 negative allosteric modulator activity IC50
T1 construct: expressed in transfected cells; host or cells: HEK-293 cells, transient co-transfection by electroporation
T1 sequence (Q14416 19-872): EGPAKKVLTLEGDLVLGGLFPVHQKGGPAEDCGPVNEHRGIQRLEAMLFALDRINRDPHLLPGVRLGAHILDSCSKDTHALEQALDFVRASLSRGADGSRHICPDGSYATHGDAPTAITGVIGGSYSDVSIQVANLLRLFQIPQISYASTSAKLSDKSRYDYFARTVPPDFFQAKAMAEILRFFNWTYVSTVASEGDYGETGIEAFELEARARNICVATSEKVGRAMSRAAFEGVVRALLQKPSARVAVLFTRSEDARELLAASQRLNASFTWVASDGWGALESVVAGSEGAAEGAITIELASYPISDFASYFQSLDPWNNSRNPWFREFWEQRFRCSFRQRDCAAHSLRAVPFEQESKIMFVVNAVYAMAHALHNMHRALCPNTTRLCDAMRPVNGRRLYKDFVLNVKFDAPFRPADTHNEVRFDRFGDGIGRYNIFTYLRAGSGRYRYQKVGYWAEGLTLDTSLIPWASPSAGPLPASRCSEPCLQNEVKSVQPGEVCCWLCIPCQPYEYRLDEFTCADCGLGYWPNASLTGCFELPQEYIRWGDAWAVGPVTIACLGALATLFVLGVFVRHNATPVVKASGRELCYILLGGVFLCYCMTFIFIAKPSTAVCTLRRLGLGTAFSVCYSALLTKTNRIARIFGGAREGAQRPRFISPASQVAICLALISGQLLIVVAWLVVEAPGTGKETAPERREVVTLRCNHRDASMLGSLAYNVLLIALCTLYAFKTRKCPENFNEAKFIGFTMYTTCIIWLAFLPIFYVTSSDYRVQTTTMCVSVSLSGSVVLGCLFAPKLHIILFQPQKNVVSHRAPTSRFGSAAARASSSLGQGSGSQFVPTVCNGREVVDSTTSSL
Method: Example 127: Human mGluR2 and mGluR3 Evaluation Using Ca^++ Functional Assay
Examples of the present invention were tested successively for their agonist and negative allosteric modulator activities on human mGluR2 (hmGluR2) and mGluR3 (hmGluR3) transiently over-expressed in HEK-293 cells.
Cell Culture and Transfection
HEK-293 cells are maintained in Modified Eagle's Medium supplemented with 10% Foetal Calf Serum, 1% Penicillin/Streptomycin and 1% non-essential amino acids at 37° C./5% CO2.
Cells are co-transfected by electroporation with four DNA plasmids encoding hmGluR2 or hmGluR3, a chimeric G protein allowing redirection of the activation signal to intracellular calcium pathway (Brabet I et al., Neuropharmacology 37(8), 1043-51, 1998), and two glutamate transporters minimizing receptor desensitization by endogenous glutamate. After transfection, cells are cultured for 24 h at 37° C./5% CO2.
Calcium Assay IC50 Determination
Receptor activity is detected by changes in intracellular calcium measured using the fluorescent Ca^2+ sensitive dye, Fluo4AM (Molecular Probes).
On the day of the assay, culture medium is aspirated and replaced during 3 hours by medium without serum supplemented with 1% Glutamax, 1% Penicillin/Streptomycin and 1% non-essential amino acids. Then, cells are washed with freshly prepared buffer B (HBSS 1×(PAA), Hepes 20 mM, MgSO4-7H2O 1 mM, Na2CO3 3.3 mM, CaCl2-2H2O 1.3 mM, 0.1% BSA, Probenecid 2.5 mM) and loaded at 37° C. in 5% CO2 for 1.5 hours with buffer B containing 1 μM Fluo4AM, 0.1 mg/mL Pluronic Acid, 7 μg/mL Glutamate Pyruvate Transaminase and 2 mM sodium pyruvate. Afterwards cells are washed twice with buffer B. Then cells are detached using StemPro Accutase (Fischer Scientific), resuspended in buffer B and seeded in 384 well plate at a density of 30,000 cells per well. Addition of compounds and intracellular Ca^2+ measurements (excitation 485 nm, emission 525 nm) are performed by the fluorescence microplate reader FLIPRTetra (Molecular Devices).
Agonist and negative allosteric modulator activities of compounds are consecutively evaluated on the same cell plate. […] Then, cells are stimulated by an EC80 glutamate concentration and fluorescence is recorded for additional 3 minutes. EC80 glutamate concentration is the concentration giving 80% of the maximal glutamate response. Agonist or negative allosteric modulator activity(ies) are evaluated in comparison to basal signals evoked by buffer B or EC80 glutamate alone, respectively.
For IC50 determination, a dose-response test is performed using 20 concentrations (ranging over 6 logs) of each compound. Dose-response curves are fitted using the sigmoidal dose-response (variable slope) analysis in GraphPad Prism program (Graph Pad Inc) and IC50 of negative allosteric modulator activity is calculated. Dose-response experiments are performed in duplicate, two times independently.

| IC50 (human mGluR2 (hmGluR2)) [µM] | melting point [°C] | Compound |
| --- | --- | --- |
| < 1 |  | Cc1cc(-c2cc3n(C)c(=O)c4ccccc4n3n2)ccn1 [Example 2, 4-methyl 2-(2-methyl-pyridin-4-yl)-4H-pyrazolo[1,5-a]quinazolin-5-one] |
| < 1 | > 250 | CCc1cc(-c2cc3n(C)c(=O)c4ccccc4n3n2)ccn1.Cl [Example 3, 2-(2-Ethyl-pyridin-4-yl)-4-methyl-4H-pyrazolo[1,5-a]quinazolin-5-one] |
| < 1 | > 250 | CCCc1cc(-c2cc3n(C)c(=O)c4ccccc4n3n2)ccn1.Cl [Example 4, 2-(2-propyl-pyridin-4-yl)-4-methyl-4H-pyrazolo[1,5-a]quinazolin-5-one] |
| < 1 | 248 to 251 | Cl.Cn1c(=O)c2ccccc2n2nc(-c3ccnc(C4CC4)c3)cc12 [Example 5, 2-(2-Cyclopropyl-pyridin-4-yl)-4-methyl-4H-pyrazolo[1,5-a]quinazolin-5-one] |
| < 1 | 236 to 244 | Cl.Cn1c(=O)c2ccccc2n2nc(-c3ccnc(C4CCC4)c3)cc12 [Example 6, 2-(2-cyclobutyl-pyridin-4-yl)-4-methyl-4H-pyrazolo[1,5-a]quinazolin-5-one] |
| < 1 |  | C=C(C)c1cc(-c2cc3n(C)c(=O)c4ccccc4n3n2)ccn1 [Example 10, 2-(2-Isopropenyl-pyridin-4-yl)-4-methyl-4H-pyrazolo[1,5-a]quinazolin-5-one] |
| < 1 | > 250 | CC(C)c1cc(-c2cc3n(C)c(=O)c4ccccc4n3n2)ccn1.Cl [Example 11, 2-(2-Isopropyl-pyridin-4-yl)-4-methyl-4H-pyrazolo[1,5-a]quinazolin-5-one] |
| < 1 | > 250 | Cn1c(=O)c2ccccc2n2nc(-c3ccnc(C#N)c3)cc12 [Example 12, 4-(4-Methyl-5-oxo-4,5-dihydro-pyrazolo[1,5-a]quinazolin-2-yl)-pyridine-2-carbonitrile] |
| < 1 | > 250 | COc1cc(-c2cc3n(C)c(=O)c4ccccc4n3n2)ccn1 [Example 14, 2-(2-Methoxy-pyridin-4-yl)-4-methyl-4H-pyrazolo[1,5-a]quinazolin-5-one] |
| < 1 | 180 to 182 | CCOc1cc(-c2cc3n(C)c(=O)c4ccccc4n3n2)ccn1 [Example 15, 2-(2-ethoxy-pyridin-4-yl)-4-methyl-4H-pyrazolo[1,5-a]quinazolin-5-one] |
| < 1 | 173 to 176 | CC(C)Oc1cc(-c2cc3n(C)c(=O)c4ccccc4n3n2)ccn1 [Example 16, 2-(2-Isopropoxy-pyridin-4-yl)-4-methyl-4H-pyrazolo[1,5-a]quinazolin-5-one] |
| < 1 | 185 to 189 | Cn1c(=O)c2ccccc2n2nc(-c3ccnc(OCC4CC4)c3)cc12 [Example 19, 2-(2-Cyclopropylmethoxy-pyridin-4-yl)-4-methyl-4H-pyrazolo[1,5-a]quinazolin-5-one] |
| < 1 | 219 to 223 | Cn1c(=O)c2ccccc2n2nc(-c3ccnc(OCC(F)(F)F)c3)cc12 [Example 21, 4-Methyl-2-[2-(2,2,2-trifluoro-ethoxy)-pyridin-4-yl]-4H-pyrazolo[1,5-a]quinazolin-5-one] |
| < 1 | 209 to 213 | Cn1c(=O)c2ccccc2n2nc(-c3ccnc(OCC(F)F)c3)cc12 [Example 22, 4-Methyl-2-[2-(2,2-difluoro-ethoxy)-pyridin-4-yl]-4H-pyrazolo[1,5-a]quinazolin-5-one] |
| < 1 | 189 to 191 | Cn1c(=O)c2ccccc2n2nc(-c3ccnc(OCC(C)(F)F)c3)cc12 [Example 23, 2-[2-(2,2-Difluoro-propoxy)-pyridin-4-yl]-4-methyl-4H-pyrazolo[1,5-a]quinazolin-5-one] |
| < 1 | 150 to 155 | Cn1c(=O)c2ccccc2n2nc(-c3ccnc(OCC(F)(F)C(F)(F)F)c3)cc12 [Example 24, 4-Methyl-2-[2-(2,2,3,3,3-pentafluoro-propoxy)-pyridin-4-yl]-4H-pyrazolo[1,5-a]quinazolin-5-one] |

| IC50 (human mGluR2 (hmGluR2)) [µM] | melting point [°C] | Compound |
| --- | --- | --- |
| < 1 | 188 to 194 | Cn1c(=O)c2ccccc2n2nc(-c3ccnc(OC(C(F)(F)F)C(F)(F)F)c3)cc12 [Example 25, 4-Methyl-2-[2-(2,2,2-trifluoro-1-trifluoromethyl-ethoxy)-pyridin-4-yl]-4H-pyrazolo[1,5-a]quinazolin-5-one] |
| < 1 |  | Cn1c(=O)c2cc(Cl)ccc2n2nc(-c3ccnc(C(F)(F)F)c3)cc12 [Example 35] |
| < 1 |  | Cn1c(=O)c2cc(Br)ccc2n2nc(-c3ccnc(C(F)(F)F)c3)cc12 [Example 39] |
| < 1 |  | Cn1c(=O)c2ccc(Cl)cc2n2nc(-c3ccnc(C(F)(F)F)c3)cc12 [Example 56, 8-Chloro-4-methyl-2-(2-trifluoromethyl-pyridin-4-yl)-4H-pyrazolo[1,5-a]quinazolin-5-one] |
| < 1 |  | Cn1c(=O)c2ccc(Br)cc2n2nc(-c3ccnc(C(F)(F)F)c3)cc12 [Example 58, 8-Bromo-4-methyl-2-(2-trifluoromethyl-pyridin-4-yl)-4H-pyrazolo[1,5-a]quinazolin-5-one] |
| < 1 |  | CN(C)C(=O)c1ccc2c(=O)n(C)c3cc(-c4ccnc(C(F)(F)F)c4)nn3c2c1 [Example 79, 4-Methyl-5-oxo-2-(2-trifluoromethyl-pyridin-4-yl)-4,5-dihydro-pyrazolo[1,5-a]quinazoline-8-carboxylic Acid Dimethylamide] |
| < 1 |  | CNc1cc2c(=O)n(C)c3cc(-c4ccnc(C(F)(F)F)c4)nn3c2cc1OC [Example 94, 8-Methoxy-4-methyl-7-methylamino-2-(2-trifluoromethyl-pyridin-4-yl)-4H-pyrazolo[1,5-a]quinazolin-5-one] |
| < 1 |  | Cn1c(=O)c2cc(Cl)ccc2n2nc(-c3ccnc(Cl)c3)cc12 [Example 95, 7-Chloro-2-(2-chloro-pyridin-4-yl)-4-methyl-4H-pyrazolo[1,5-a]quinazolin-5-one] |
| < 1 |  | Cn1c(=O)c2cc(Cl)ccc2n2nc(-c3ccnc(C4CC4)c3)cc12 [Example 96] |
| < 1 |  | Cn1c(=O)c2cc(Cl)ccc2n2nc(-c3ccnc(OCC(F)(F)F)c3)cc12 [Example 98, 7-Chloro-4-methyl-2-[2-(2,2,2-trifluoro-ethoxy)-pyridin-4-yl]-4H-pyrazolo[1,5-a]quinazolin-5-one] |
| < 1 |  | COc1ccc2c(c1)c(=O)n(C)c1cc(-c3ccnc(Cl)c3)nn21 [Example 99, 2-(2-Chloro-pyridin-4-yl)-7-methoxy-4-methyl-4H-pyrazolo[1,5-a]quinazolin-5-one] |
| < 1 |  | COc1ccc2c(c1)c(=O)n(C)c1cc(-c3ccnc(C4CC4)c3)nn21 [Example 100, 2-(2-Cyclopropyl-pyridin-4-yl)-7-methoxy-4-methyl-4H-pyrazolo[1,5-a]quinazolin-5-one] |
| < 1 |  | Cc1cc(-c2cc3n(C)c(=O)c4ccccc4n3n2)cc(Cl)n1 [Example 105, 2-(2-Chloro-6-methyl-pyridin-4-yl)-4-methyl-4H-pyrazolo[1,5-a]quinazolin-5-one] |
| < 1 |  | Cc1cc(-c2cc3n(C)c(=O)c4ccccc4n3n2)cc(C2CC2)n1 [Example 106, 2-(2-Cyclopropyl-6-methyl-pyridin-4-yl)-4-methyl-4H-pyrazolo[1,5-a]quinazolin-5-one] |
| < 1 |  | Cn1c(=O)c2ccccc2n2nc(-c3ccncc3Cl)cc12 [Example 108, 2-(3-Chloro-pyridin-4-yl)-4-methyl-4H-pyrazolo[1,5-a]quinazolin-5-one] |
| < 1 |  | Cn1c(=O)c2ccc(F)cc2n2nc(-c3ccnc(Cl)c3)cc12 [Example 117, 2-(2-Chloro-pyridin-4-yl)-8-fluoro-4-methyl-4H-pyrazolo[1,5-a]quinazolin-5-one] |

| Compound | IC50 (human mGluR2 (hmGluR2)) [µM] | melting point [°C] |
| --- | --- | --- |
| Cn1c(=O)c2ccccc2n2nc(-c3ccnc(OC4CCC4)c3)cc12 [Example 17, 2-(2-Cyclobutoxy-pyridin-4-yl)-4-methyl-4H-pyrazolo[1,5-a]quinazolin-5-one] | < 1 | 218 to 222 |
